According to ChEMBL document CHEMBL4118200, “Boronic acid inhibitors of the class A β-lactamase KPC-2” (Bioorg Med Chem, 2018):
Converted amounts (≈) assume the structure as drawn.

Experiments:
Escherichia coli = experiment: microbe, parasite or virus in culture; format: functional; conditions: NCTC 10118, 16 h
[1] = target: Beta-lactamase (Escherichia coli) (UniProt Q7BB82); conditions: G69
[2] = target: Metallo-beta-lactamase type 2 (Klebsiella pneumoniae) (UniProt C7C422); conditions: NCTC 13443
Metallo-beta-lactamase type 2 (Klebsiella pneumoniae), sequence (C7C422 whole entry): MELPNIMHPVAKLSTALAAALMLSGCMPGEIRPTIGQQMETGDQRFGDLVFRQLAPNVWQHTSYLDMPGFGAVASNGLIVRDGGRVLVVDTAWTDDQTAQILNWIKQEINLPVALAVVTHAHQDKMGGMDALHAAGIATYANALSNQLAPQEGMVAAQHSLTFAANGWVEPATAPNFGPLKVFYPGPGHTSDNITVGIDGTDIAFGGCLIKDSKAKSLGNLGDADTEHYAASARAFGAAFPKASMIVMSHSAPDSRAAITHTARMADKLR

Klebsiella pneumoniae = conditions: isolate 342
[3] = Inhibition of bacterial AmpC; parameters: species or system Bacteria

Beta-lactamase (Escherichia coli), sequence (Q7BB82 as listed by the source): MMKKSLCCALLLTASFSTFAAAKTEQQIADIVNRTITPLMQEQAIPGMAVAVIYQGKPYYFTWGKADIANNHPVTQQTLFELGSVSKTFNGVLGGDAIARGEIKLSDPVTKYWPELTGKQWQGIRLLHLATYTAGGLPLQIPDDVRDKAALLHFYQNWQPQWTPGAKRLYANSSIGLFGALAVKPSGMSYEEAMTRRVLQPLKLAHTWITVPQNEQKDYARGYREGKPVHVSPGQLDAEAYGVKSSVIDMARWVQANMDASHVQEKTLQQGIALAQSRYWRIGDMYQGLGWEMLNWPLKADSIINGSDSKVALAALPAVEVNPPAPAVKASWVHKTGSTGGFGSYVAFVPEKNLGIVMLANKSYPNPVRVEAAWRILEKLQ
Description for Bacteria: Inhibition of bacterial beta-lactamase KPC2 expressed in Escherichia coli BL21(DE3) assessed as cefotaxime MIC at 50 ug/ml incubated for 16 hrs by broth microdilution method (Rvb = 16 ug/ml)

| Structure (SMILES) | MIC (Escherichia coli) [µg/mL] | MIC (Bacteria) [µg/mL] | MIC [1] [µg/mL] | MIC [2] [µg/mL] | MIC (Klebsiella pneumoniae) [µg/mL] | Ki [3] [nM] |
| --- | --- | --- | --- | --- | --- | --- |
| OB(O)c1cccc(Cn2cc(-c3ccccn3)nn2)c1 | ≤ 0.03 | < 0.03 | > 32 | > 32 | > 32 | – |
| OB(O)c1ccc(Cn2cc(-c3cccs3)nn2)cc1 | ≤ 0.03 | 0.12 (≈ 0.421 µM) | > 32 | > 32 | > 32 | – |
| O=C(O)C/C=C/c1c(B(O)O)sc2ccccc12 | – | – | – | – | – | 90 |
| OB(O)c1cccc(Cn2cc(-c3ccsc3)nn2)c1 | ≤ 0.03 | < 0.03 | > 32 | > 32 | > 32 | – |
| OB(O)c1ccc(Cn2cc(-c3ccccn3)nn2)cc1 | ≤ 0.03 | < 0.03 | > 32 | > 32 | > 32 | – |
| Nc1cccc(B(O)O)c1 | – | – | – | – | – | 7100 |
| O=C(Cc1cccs1)N[C@@H](B(O)O)c1ccccc1 | – | – | – | – | – | 35 |
| OB(O)c1cccc(Cn2cc(-c3ccccc3)nn2)c1 | ≤ 0.03 | < 0.03 | > 32 | > 32 | > 32 | – |
| OB(O)c1cccc(/N=N/c2cc3ccccc3cc2O)c1 | – | – | – | – | – | 300 |
| [N-]=[N+]=NCc1ccc(B(O)O)cc1 | ≤ 0.03 | < 0.03 | > 32 | > 32 | > 32 | – |
| OB(O)c1cccc(Cn2cc(-c3cccnc3)nn2)c1 | ≤ 0.03 | < 0.03 | > 32 | > 32 | > 32 | – |
| COc1ccc(-c2cn(Cc3ccc(B(O)O)cc3)nn2)cc1 | ≤ 0.03 | 0.06 (≈ 0.194 µM) | > 32 | > 32 | > 32 | – |
| COc1ccc(-c2cn(Cc3cccc(B(O)O)c3)nn2)cc1 | ≤ 0.03 | 0.12 (≈ 0.388 µM) | 32 (≈ 104 µM) | > 32 | > 32 | – |
| OB(O)c1ccc(Cn2cc(-c3cccnc3)nn2)cc1 | ≤ 0.03 | < 0.03 | > 32 | > 32 | > 32 | – |
| OB(O)c1ccc(Cn2cc(-c3ccccc3)nn2)cc1 | ≤ 0.03 | < 0.03 | > 32 | > 32 | > 32 | – |
| [N-]=[N+]=NCc1cccc(B(O)O)c1 | ≤ 0.03 | < 0.03 | 8 (≈ 45.2 µM) | > 32 | > 32 | – |
| OB(O)c1cccc(Cn2cc(-c3cccs3)nn2)c1 | ≤ 0.03 | < 0.03 | > 32 | > 32 | > 32 | – |
| OB(O)c1ccc(Cn2cc(-c3ccsc3)nn2)cc1 | ≤ 0.03 | < 0.03 | > 32 | > 32 | > 32 | – |
